# Source: patent US10047073B2, “Histone deacetylase inhibitors and compositions and methods of use thereof” (CHDI Foundation, Inc., priority 2015, dated 2018)
# Structures can show the parent of a compound that is named as a salt.
# Assays:
# [1] = target: human catalytic domain HDAC4 protein (Homo sapiens (Human), UniProt P56524); test: Inhibition of HDAC4 catalytic domain, Boc-Lys(TFA)-AMC fluorogenic substrate; details: read-out: HDAC4 Biochemical IC50
# Description: Example 13: Analysis of Inhibition of HDAC4 with Class IIa Histone Deacetylase (HDAC) Inhibitors
# The potency of Class IIa Histone Deacetylase (HDAC) inhibitors was quantified by measuring the Histone Deacetylase 4 (HDAC4) catalytic domain enzymatic activity using the fluorogenic substrate, Boc-Lys(TFA)-AMC. The substrate was deacetylated to Boc-Lys-AMC by HDAC4. […] The fluorescence of the sample was directly related to the histone deacetylase activity in the sample.
# (§1) Serial dilutions of the HDAC inhibitors and control reference compound (1-(5-(3-((4-(1,3,4-oxadiazol-2-yl)phenoxy)methyl)-1,2,4-oxadiazol-5-yl)thiophen-2-yl)-2,2,2-trifluoroethanone) were made by first resuspending the lyophilized compound to a final concentration of 10 mM in 100% dimethyl sulfoxide (DMSO). Stocks of 60 μL aliquots of the 10 mM compound in DMSO were prepared and stored at −20° C. From one stock aliquot of each tested compound and the reference compound, a 16-point serial dilution was prepared according to Table 1 using a 125 μL 16-channel Matrix multi-channel pipette (Matrix Technologies Ltd).
# 2 μL (200×) of each diluted solution and each control (full activity: 100% DMSO alone or full inhibition 1 mM) was stamped into V-bottomed polypropylene 384-well compound plates using either the Bravo (384-well head from Agilent) or 12.5 μL 16-channel Matrix multi-channel pipette (Matrix Technologies Ltd). Each well with the 200× compound solution was diluted 1:20 by the addition of 38 μL assay buffer+DMSO (10.5% DMSO, 45 mM Tris-HCl, 123 mM NaCl, 2.4 mM KCl, and 0.9 mM MgCl2 at pH 8.0 and equilibrated to r.t.).
# The HDAC4 catalytic domain enzyme was human catalytic domain HDAC4 protein (amino acids 648-1032) with a C-terminal 6× histidine tag, produced by BioFocus. A working solution of enzyme was prepared from a 500 μg/mL stock aliquot of HDAC4 catalytic domain (thawed on ice) diluted to 0.2 μg/mL with assay buffer (50 mM Tris-HCl, 137 mM NaCl, 2.7 mM KCl, and 1 mM MgCl2 at pH 8 and equilibrated to r.t.) just prior to the addition of the enzyme to the assay.
# 5× (50 μM) substrate was prepared just prior to the addition to the assay. A 1 mM substrate stock was made by diluting a 100 mM Boc-Lys(TFA)-AMC in DMSO solution 1:100 by adding it drop-wise to assay buffer (equilibrated to r.t.) while vortexing at slow speed to prevent precipitation. The 5× substrate was prepared by diluting the 1 mM substrate solution 1:20 by adding it drop-wise to assay buffer (equilibrated to r.t.) while vortexing at slow speed to prevent precipitation.
# 3× (30 μM) Developer/Stop Solution was prepared just prior to addition to the plate by diluting a stock solution of 10 mM reference compound 1:333 in 25 mg/mL trypsin (PAA Laboratories Ltd.) equilibrated to r.t.
# 5 μL of each solution of 1:20 diluted compound from above was transferred to a clear bottomed, black, 384-well assay plate using the Bravo or the Janus (384-well MDT head from Perkin Elmer). Using a 16-channel Matrix multi-channel pipette, 35 μL of the working solution of HDAC4 catalytic domain enzyme (0.2 μg/mL in assay buffer) was transferred to the assay plate. The assay was then started by adding 10 μL of 5× (50 μM) substrate to the assay plates using either the Bravo, Janus or 16-channel Matrix multi-channel pipette. The assay plate was then shaken for two minutes on an orbital shaker at 900 rpm (rotations per minute). Next the plate was incubated for 15 minutes at 37° C. The reaction was stopped by adding 25 μL of 3× (30 μM) developer/stop solution to the assay plates using either the Bravo, Janus or a 16-channel Matrix multi-channel pipette. Assay plates were then shaken for 5 minutes on an orbital shaker at 1200 rpm. Next, the assay plates were incubated at 37° C. for 1 hour in a tissue culture incubator. Finally, the fluorescence was measured (Excitation: 355 nm, Emission: 460 nm) using PerkinElmer EnVision in top read mode.
# [2] = test system: cellular Class IIa HDAC activity in Jurkat E6-1 cells; test: Inhibition of cellular Class IIa HDAC activity, Cell (Lys-TFA) substrate; type: cell-based; details: Boc-Lys(TFA)-AMC
# Description: Example 17: Analysis of Inhibition of Cellular Class IIa HDAC Activity with Class IIa Histone Deacetylase (HDAC) Inhibitors: Cell (Lys-TFA) Substrate
# The potency of Class IIa Histone Deacetylase (HDAC) inhibitors was quantified by measuring the cellular histone deacetylase enzymatic activity using the fluorogenic substrate, Boc-Lys(TFA)-AMC. After penetration in Jurkat E6-1 cells, the substrate was deacetylated to Boc-Lys-AMC. After cell lysis and cleavage by trypsin, the fluorophore AMC was released from the deacetylated substrate only. The fluorescence of the sample was directly related to the histone deacetylase activity in the sample.
# Jurkat E6.1 cells were cultured according to standard cell culture protocols in Jurkat E6.1 Growth Media (RPMI without phenol red, 10% FBS, 10 mM HEPES, and 1 mM Sodium Pyruvate). Jurkat E6.1 cells were counted using a Coulter Counter and resuspended in Jurkat E6.1 growth media at a concentration of 75,000 cells/35 μL. 35 μL or 75,000 cells was seeded into Greiner microtitre assay plates. The plates were then incubated at 37° C. and 5% CO2 while other assay components were being prepared.
# as §1, with “DMSO.” for “dimethyl sulfoxide (DMSO).”, “[…]” for “60 μL”, “pipette.” for “pipette (Matrix Technologies Ltd).”
# 2 μL (200×) of each diluted solution and each control (full activity: 100% DMSO alone or full inhibition 1 mM) was stamped into V-bottom polypropylene 384-well compound plates using either the Bravo, Janus, or 12.5 μL 16-channel Matrix multi-channel pipette. Each well with the 200× compound solution was diluted 1:20 by the addition of 38 μL Jurkat assay buffer+DMSO (9.5% DMSO, RPMI without phenol red, 0.09% FBS, 9 mM Hepes, and 0.9 mM Sodium Pyruvate equilibrated to r.t.)
# 5× (500 μM) substrate was prepared just prior to the addition to the assay. The 5× substrate was prepared by diluting a 100 mM Boc-Lys(TFA)-AMC in DMSO solution 1:200 by adding it drop-wise to Jurkat assay medium (RPMI without phenol red, 0.1% FBS, 10 mM Hepes, and 1 mM Sodium Pyruvate equilibrated to 37° C.) while vortexing at slow speed to prevent precipitation.
# 10 mL of 3× lysis buffer was prepared with 8.8 mL of 3× stock lysis buffer (50 mM Tris-HCl, pH 8.0, 137 mM NaCl, 2.7 mM KCl, 1 mM MgCl2, 1% Nonidet P40 Substitute equilibrated to r.t.) and 1.2 mL of 3 mg/mL Trypsin equilibrated to r.t.
# 5 μL of each solution of 1:20 diluted compound from above was transferred to the Greiner microtitre assay plates with 75,000 cells/well using the Bravo. Cells were then incubated for 2 hours at 37° C. and 5% CO2. The assay was then started by adding 10 μL of 5× (500 μM) substrate to the assay plate using either the Bravo or 16-channel Matrix multi-channel pipette. The cells were then incubated for 3 hours at 37° C. and 5% CO2. Next, 25 μL of 3× lysis buffer was added to each well using either the 125 μL 16 channel pipette or the Bravo. The assay plate was then incubated overnight (15-16 hours) at 37° C. and 5% CO2. The following day, the plates were shaken on an orbital shaker for 1 minute at 900 rpm. Finally the top read fluorescence (Excitation: 355 nm, Emission: 460 nm) was measured using PerkinElmer EnVision.
# [3] = test system: cellular Class I HDAC activity in Jurkat E6-1 cells; test: Inhibition of cellular Class I HDAC activity, Cell (Lys-Ac) substrate; type: cell-based; details: Boc-Lys(Ac)-AMC
# Protocol: Example 18: Analysis of Inhibition of Cellular Class I HDAC Activity with Class IIa Histone Deacetylase (HDAC) Inhibitors: Cell (Lys-Ac) Substrate
# The Class I HDAC activity of Class IIa Histone Deacetylase (HDAC) inhibitors was quantified by measuring the cellular histone deacetylase enzymatic activity using the fluorogenic substrate, Boc-Lys(Ac)-AMC. This was performed according to the procedure in Example 17, using Boc-Lys(Ac)-AMC substrate in place of Boc-Lys(TFA)-AMC.
# [4] = Homo sapiens, Jurkat E6.1, Jurkat E6.1 cells
# Chain of human catalytic domain HDAC4 protein (P56524 648-1032): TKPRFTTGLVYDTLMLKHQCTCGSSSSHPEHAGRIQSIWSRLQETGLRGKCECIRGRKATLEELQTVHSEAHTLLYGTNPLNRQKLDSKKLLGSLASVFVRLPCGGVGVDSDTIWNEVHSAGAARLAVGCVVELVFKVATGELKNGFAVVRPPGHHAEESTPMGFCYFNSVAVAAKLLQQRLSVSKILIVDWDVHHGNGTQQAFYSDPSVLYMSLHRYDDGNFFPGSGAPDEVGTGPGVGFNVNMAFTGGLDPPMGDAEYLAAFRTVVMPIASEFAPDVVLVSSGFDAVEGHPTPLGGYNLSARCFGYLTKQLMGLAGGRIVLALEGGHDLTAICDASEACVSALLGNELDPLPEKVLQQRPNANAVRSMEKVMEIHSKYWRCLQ
IC50 [1] [nM],IC50 ([2]; Jurkat E6.1 cells) [nM],IC50 ([3]; Jurkat E6.1 cells) [nM],"IC50 [2, 4] [nM]","IC50 [3, 4] [nM]",SMILES
3,14,540,–,–,"O=C(NC1(CN2CCCC2C2CC2)CC1)c1ccc(-c2noc(C(F)(F)F)n2)cc1 (single isomer, unassigned) [Example 7, E2-(abs)-N-(1-((2-Cyclopropylpyrrolidin-1-yl)methyl)cyclopropyl)-4-(5-(trifluoromethyl)-1,2,4-oxadiazol-3-yl)benzamide]"
110,–,–,240,4900,"O=C(NC1(CN2CCC3(CC2)COC3)CC1)c1ccc(-c2noc(C(F)(F)F)n2)cc1 [Example 2, N-(1-(2-Oxa-7-azaspiro[3.5]nonan-7-ylmethyl)cyclopropyl)-4-(5-(trifluoromethyl)-1,2,4-oxadiazol-3-yl)benzamide]"
89,–,–,370,2000,"O=C(NC1(CN2CCC3(CC2)CC3)CC1)c1ccc(-c2noc(C(F)(F)F)n2)cc1 [Example 5, N-(1-(6-Azaspiro[2.5]octan-6-ylmethyl)cyclopropyl)-4-(5-(trifluoromethyl)-1,2,4-oxadiazol-3-yl)benzamide]"
230,–,–,1000,36600,"C[C@H]1CCCN1CC1CC1NC(=O)c1ccc(-c2noc(C(F)(F)F)n2)cc1 (single isomer, unassigned) [Example 11]"
8,–,1500,28,–,"O=C(NC1(CN2CCCC2C2CC2)CC1)c1ccc(-c2noc(C(F)(F)F)n2)cc1 (single isomer, unassigned) [Example 6, E1-(abs)-N-(1-((2-Cyclopropylpyrrolidin-1-yl)methyl)cyclopropyl)-4-(5-(trifluoromethyl)-1,2,4-oxadiazol-3-yl)benzamide]"
–,–,–,690,7800,"O=C(NC1(CN2CC3CCC(C3)C2)CC1)c1ccc(-c2noc(C(F)(F)F)n2)cc1 [Example 4, N-(1-(-3-Azabicyclo[3.2.1]octan-3-ylmethyl)cyclopropyl)-4-(5-(trifluoromethyl)-1,2,4-oxadiazol-3-yl)benzamide]"
58,–,–,100,700,"O=C(NC1(CN2CCC3(CC3)C2)CCC1)c1ccc(-c2noc(C(F)(F)F)n2)cc1 [Example 9, N-(1-(5-Azaspiro[2.4]heptan-5-ylmethyl)cyclobutyl)-4-(5-(trifluoromethyl)-1,2,4-oxadiazol-3-yl)benzamide]"
50,–,–,140,2600,"O=C(NC1(CN2CCCC3(CC3)C2)CC1)c1ccc(-c2noc(C(F)(F)F)n2)cc1 [Example 1, N-(1-(5-Azaspiro[2.5]octan-5-ylmethyl)cyclopropyl)-4-(5-(trifluoromethyl)-1,2,4-oxadiazol-3-yl)benzamide]"
30,–,–,45,2500,"CC1(C)CCCN(CC2(NC(=O)c3ccc(-c4noc(C(F)(F)F)n4)cc3)CC2)C1 [Example 8, N-(1-((3,3-Dimethylpiperidin-1-yl)methyl)cyclopropyl)-4-(5-(trifluoromethyl)-1,2,4-oxadiazol-3-yl)benzamide formate]"
750,–,–,390,8600,"O=C(NC1(CN2CCCC23COC3)CC1)c1ccc(-c2noc(C(F)(F)F)n2)cc1 [Example 3, N-(1-(2-Oxa-5-azaspiro[3.4]octan-5-ylmethyl)cyclopropyl)-4-(5-(trifluoromethyl)-1,2,4-oxadiazol-3-yl)benzamide]"
76,–,–,312,15100,"CC1(C)CCCN(CC2(NC(=O)c3ccc(-c4noc(C(F)(F)F)n4)c(F)c3)CC2)C1 [Example 12, N-(1-((3,3-Dimethylpiperidin-1-yl)methyl)cyclopropyl)-3-fluoro-4-(5-(trifluoromethyl)-1,2,4-oxadiazol-3-yl)benzamide]"
750,–,–,390,8600,"O=C(NC1(CN2CCCC23COC3)CCC1)c1ccc(-c2noc(C(F)(F)F)n2)cc1 [Example 10, N-(1-(2-Oxa-5-azaspiro[3.4]octan-5-ylmethyl)cyclobutyl)-4-(5-(trifluoromethyl)-1,2,4-oxadiazol-3-yl)benzamide]"
